Reference: patent publication US7816522B2, “Triazolone derivatives” (Eisai Co., Ltd., priority 2006, dated 2010)
Counter-ions that a name gives are not always drawn.

Molecular target: T1, human clotting factor VIIa (Homo sapiens, UniProt P08709)
T1 construct: a human clotting factor VIIa (hereinafter, “Factor VIIa”) purified sample; purchased Enzyme Research Laboratories HFVIIa
Assay: Inhibitory activity against clotting factor VIIa (chromogenic substrate Spectrozyme FVIIa, TF/Factor VIIa enzyme solution)
Type: biochemical
Details: human Factor VIIa 5 nmol/L with human TF 10 nmol/L, room temperature 40 minutes, 405 nm
Protocol: [Inhibitory Activity Against Clotting Factor VIIa]
Dimethylsulfoxide (DMSO) solutions were prepared with compounds of the invention at concentration of 10 mmol/L (10 mmol/L compound solutions).
One packet of tris-hydroxymethylaminomethane-preset (hereinafter referred to as “Tris preset”) (Product of Sigma Corp., Catalog No. T8293), 8.8 g of sodium chloride (NaCl) and 1 g of bovine serum albumin (hereinafter abbreviated as “BSA”) were dissolved in 1 L of water to prepare a Tris-BSA buffer (100 mmol/L Tris, 0.15 mol/L NaCl, 0.1% BSA, pH 7.4).
This Tris-BSA buffer (180 μL) was added to the aforementioned 10 mmol/L compound solution (20 μL). A 10-fold dilution series was prepared for this mixture using the aforementioned Tris-BSA buffer, and solutions with the compound at concentrations of 1.0 mmol/L, 100, 10, 1, 0.1, 0.01 and 0.001 μmol/L were prepared (1.0 mmol-0.001 μmol/L compound solutions). As a control, a solution was prepared by 10-fold dilution of DMSO with the Tris-BSA buffer (hereinafter referred to as “control 10% solution”).
After dissolving one packet of Tris preset, NaCl (8.8 g) and BSA (1 g) in water (about 900 mL), there were added 1 mol/L aqueous calcium chloride (CaCl2) (15 mL) and 1 mg/mL aqueous cephalin (30 mL), and the total volume was brought to 1 L by adding water. To this solution there was added a human tissue factor (hereinafter, “TF”) sample (product of Calbiochem, Catalog No. 612151) (450 μg) to a TF sample concentration of 10 nmol/L, and then a human clotting factor VIIa (hereinafter, “Factor VIIa”) purified sample (product of Enzyme Research Laboratories, Catalog No. HFVIIa) (250 μg) was added to a Factor VIIa purified sample concentration of 5 nmol/L, to prepare an enzyme solution (100 mmol/L Tris-HCl, 0.15 mol/L NaCl, 15 mmol/L CaCl2, 30 μg/mL cephalin, 1 mg/mL BSA, 10 nmol/L TF, 5 nmol/L Factor VIIa).
To 110 μL of this enzyme solution there was added 15 μL of each of the 1.0 mmol-0.001 μmol/L compound solutions, and then 25 μL of a 1.0 mmol/L synthetic chromogenic substrate solution (Spectrozyme FVIIa, product of American Diagnostica, Catalog No. 217L) was added and the mixture was allowed to stand at room temperature for 40 minutes. Next, the amount of 4-nitroanilide released into the solution was quantitated by spectrophotometry (405 nm).
A control measurement was conducted in the same manner, using the control 10% solution instead of the compound solution.
This measurement yielded the enzyme reaction inhibition in the presence of 100 μmol/L to 0.1 nmol/L of each compound of the invention.
The enzyme reaction inhibition at each compound concentration was subjected to non-linear regression analysis, and the IC50 value for inhibitory activity of each compound against clotting factor VIIa was calculated.

T1 sequence (P08709 213-466 limits assumed): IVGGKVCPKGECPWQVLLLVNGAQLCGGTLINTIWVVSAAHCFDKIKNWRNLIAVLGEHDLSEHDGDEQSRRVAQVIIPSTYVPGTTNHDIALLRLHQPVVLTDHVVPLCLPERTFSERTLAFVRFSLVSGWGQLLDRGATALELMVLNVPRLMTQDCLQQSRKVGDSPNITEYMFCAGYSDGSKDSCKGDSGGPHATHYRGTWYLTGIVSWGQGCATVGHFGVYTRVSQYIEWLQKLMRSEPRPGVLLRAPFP
T1 sequence (P08709 61-212 limits assumed): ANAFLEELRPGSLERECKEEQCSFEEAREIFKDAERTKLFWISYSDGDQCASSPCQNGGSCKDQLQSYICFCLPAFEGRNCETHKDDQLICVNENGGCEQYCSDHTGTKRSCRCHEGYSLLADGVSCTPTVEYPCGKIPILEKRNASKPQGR
T1 sequence (P13726 33-295 partner): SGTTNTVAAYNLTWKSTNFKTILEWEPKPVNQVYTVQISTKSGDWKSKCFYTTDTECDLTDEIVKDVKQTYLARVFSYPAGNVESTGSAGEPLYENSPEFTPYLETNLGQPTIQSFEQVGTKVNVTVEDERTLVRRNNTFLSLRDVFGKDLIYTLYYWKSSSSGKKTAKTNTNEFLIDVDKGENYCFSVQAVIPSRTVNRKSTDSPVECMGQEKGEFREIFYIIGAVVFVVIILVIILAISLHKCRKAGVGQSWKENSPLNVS

| Structure (SMILES) | IC50 [nM] |
| --- | --- |
| CCOc1cccc(C(Nc2ccc(C(=N)N)cc2)c2nn(-c3ncccn3)c(=O)[nH]2)c1 (centres unmarked) [Example 90, 4-{[(3-ethoxyphenyl)-(5-oxo-1-pyrimidin-2-yl-4,5-dihydro-1H-[1,2,4]triazol-3-yl)methyl]amino}benzamidine acetate] | 66.6 |
| COc1cc(C(Nc2ccc(C(=N)N)cc2)c2nn(-c3ccccc3C(N)=O)c(=O)[nH]2)ccc1OCC(=O)N(C)C (centres unmarked) [Example 105, 2-{3-[(4-carbamimidoyl-phenylamino)-(4-dimethylcarbamoylmethoxy-3-methoxyphenyl)methyl]-5-oxo-4,5-dihydro-1H-[1,2,4]triazol-1-yl}benzamide trifluoroacetate] | 31.7 |
| COc1cc(OC)cc(C(Nc2ccc(C(=N)N)cc2)c2nn(-c3ncccn3)c(=O)[nH]2)c1 (racemic) [Example 9, (R) and (S)-4-{[(3,5-dimethoxyphenyl)-(5-oxo-1-pyrimidin-2-yl-4,5-dihydro-1H-[1,2,4]triazol-3-yl)methyl]amino}benzamidine acetate] | 9.8 |
| CCOc1cc(C(Nc2ccc(C(=N)N)cc2)c2nn(-c3ncccc3N)c(=O)[nH]2)ccc1OC (racemic) [Example 35, (R) and (S)-4-({[1-(3-aminopyridin-2-yl)-5-oxo-4,5-dihydro-1H-[1,2,4]triazol-3-yl]-(3-ethoxy-4-methoxyphenyl)methyl}amino)benzamidine acetate] | 6.8 |
| COc1cc(C(Nc2ccc(C(=N)N)cc2)c2nn(-c3ncccn3)c(=O)[nH]2)cc(CC#N)c1OC (racemic) [Example 26, (R) and (S)-4-{[(3-cyanomethyl-4,5-dimethoxyphenyl)-(5-oxo-1-pyrimidin-2-yl-4,5-dihydro-1H-[1,2,4]triazol-3-yl)methyl]amino}benzamidine acetate] | 5.4 |
| COc1cc(C(Nc2ccc(C(=N)N)cc2)c2nn(-c3[nH]ncc3C(=O)O)c(=O)[nH]2)c(F)c2c1OCCC2 (centres unmarked) [Example 189, 5-{3-[(4-Carbamimidoylphenylamino)-(5-fluoro-8-methoxychroman-6-yl)methyl]-5-oxo-4,5-dihydro-[1,2,4]triazol-1-yl}-1H-pyrazole-4-carboxylic acid] | 32.2 |
| CCOc1cc(C(Nc2ccc(C(=N)N)cc2)c2nn(-c3ccsc3C(=O)O)c(=O)[nH]2)cnc1OC (racemic) [Example 235, 3-{3-[(4-Carbamimidoylphenylamino)-(5-ethoxy-6-methoxypyridin-3-yl)methyl]-5-oxo-4,5-dihydro-[1,2,4]triazol-1-yl}thiophene-2-carboxylic acid] | 3.8 |
| COc1cc(OCC(=O)N(C)C)c(F)c(C(Nc2ccc(C(=N)N)cc2)c2nn(-c3ncccn3)c(=O)[nH]2)c1 (racemic) [Example 15, (R) and (S)-2-{3-[(4-carbamimidoylphenylamino)-(5-oxo-1-pyrimidin-2-yl-4,5-dihydro-1H-[1,2,4]triazol-3-yl)methyl]-2-fluoro-5-methoxyphenoxy}-N,N-dimethylacetamide acetate] | 13.4 |
| COCCOc1cc(OC)cc(C(Nc2ccc(C(=N)N)cc2)c2nn(-c3ncccn3)c(=O)[nH]2)c1F (racemic) [Example 92, 4-{[(R) and (S)-[2-fluoro-5-methoxy-3-(2-methoxyethoxy)phenyl]-(5-oxo-1-pyrimidin-2-yl-4,5-dihydro-1H-[1,2,4]triazol-3-yl)methyl]amino}benzamidine acetate] | 11.6 |
| COc1cc(C(Nc2ccc(C(=N)N)cc2)c2nn(-c3ncccc3N)c(=O)[nH]2)cc(C)n1 (racemic) [Example 19, (R) and (S)-4-({[1-(3-aminopyridin-2-yl)-5-oxo-4,5-dihydro-1H-[1,2,4]triazol-3-yl]-(2-methoxy-6-methylpyridin-4-yl)methyl}amino)benzamidine acetate] | 12.8 |

More lines, now with the values ahead:

| IC50 [nM] | Structure (SMILES) |
| --- | --- |
| 7.7 | COc1cc(C(Nc2ccc(C(=N)N)cc2)c2nn(-c3cccnn3)c(=O)[nH]2)ccc1OCC#N (racemic) [Example 144, (R) and (S)-4-{[(4-cyanomethoxy-3-methoxyphenyl)-(5-oxo-1-pyridazin-3-yl-4,5-dihydro-1H-[1,2,4]triazol-3-yl)methyl]amino}benzamidine acetate] |
| 5.1 | COc1cc(OCCF)c(F)c(C(Nc2ccc(C(=N)N)cc2)c2nn(-c3cccc(N)n3)c(=O)[nH]2)c1 (centres unmarked) [Example 51, 4-({[1-(6-aminopyridin-2-yl)-5-oxo-4,5-dihydro-1H-[1,2,4]triazol-3-yl]-[2-fluoro-3-(2-fluoroethoxy)-5-methoxyphenyl]methyl}amino)benzamidine trifluoroacetate] |
| 18.6 | COc1cc(C(Nc2ccc(C(=N)N)cc2)c2nn(-c3ncccn3)c(=O)[nH]2)ccc1OCCF (racemic) [Example 81, (R) and (S)-4-({[4-(2-fluoroethoxy)-3-methoxyphenyl]-(5-oxo-1-pyrimidin-2-yl-4,5-dihydro-1H-[1,2,4]triazol-3-yl)methyl}amino)benzamidine acetate] |
| 22.4 | COc1ccc(C(Nc2ccc(C(=N)N)cc2)c2nn(-c3ncccn3)c(=O)[nH]2)cc1OCCF (racemic) [Example 117, (R) and (S)-4-({[3-(2-fluoroethoxy)-4-methoxyphenyl]-(5-oxo-1-pyrimidin-2-yl-4,5-dihydro-1H-[1,2,4]triazol-3-yl)methyl}amino)benzamidine acetate] |
| 2 | CCOc1cc(C(Nc2ccc(C(=N)N)cc2)c2nn(-c3ccccc3C(=O)O)c(=O)[nH]2)c(F)cc1OC (racemic) [Example 122, (R) and (S)-2-{3[(4-carbamimidoylphenylamino)-(5-ethoxy-2-fluoro-4-methoxyphenyl)methyl]-5-oxo-4,5-dihydro-[1,2,4]triazol-1-yl}benzoic acid acetate] |
| 8 | COc1cnc(C(Nc2ccc(C(=N)N)cc2)c2nn(-c3ccsc3C(=O)O)c(=O)[nH]2)cc1OC (racemic) [Example 170, 3-{3-[(R) and (S)-(4-carbamimidoylphenylamino)-(4,5-dimethoxypyridin-2-yl)methyl]-5-oxo-4,5-dihydro-[1,2,4]triazol-1-yl}thiophene-2-carboxylic acid] |
| 9.4 | COc1cc(OC)c(F)c(C(Nc2ccc(C(=N)N)cc2)c2nn(-c3cccc[n+]3[O-])c(=O)[nH]2)c1 (single isomer, unassigned) [Example 2] |
| 22.6 | COc1cc(OCCN(C)C)cc(C(Nc2ccc(C(=N)N)cc2)c2nn(-c3ncccn3)c(=O)[nH]2)c1 (racemic) [Example 8, (R) and (S)-4-({[3-(2-dimethylaminoethoxy)-5-methoxyphenyl]-(5-oxo-1-pyrimidin-2-yl-4,5-dihydro-1H-[1,2,4]triazol-3-yl)methyl}amino)benzamidine diacetate] |
| 16.9 | CCOc1cc(CF)cc(C(Nc2ccc(C(=N)N)cc2)c2nn(-c3ncccn3)c(=O)[nH]2)c1 (centres unmarked) [Example 84, 4-{[(3-ethoxy-5-fluoromethylphenyl)-(5-oxo-1-pyrimidin-2-yl-4,5-dihydro-1H-[1,2,4]triazol-3-yl)methyl]amino}benzamidine acetate] |
| 4.3 | COc1cc(F)c(C(Nc2ccc(C(=N)N)cc2)c2nn(-c3ccccc3N)c(=O)[nH]2)cc1OC (centres unmarked) [Example 107, 4-({[1-(2-aminophenyl)-5-oxo-4,5-dihydro-1H-[1,2,4]triazol-3-yl]-(2-fluoro-4,5-dimethoxyphenyl)methyl}amino)benzamidine trifluoroacetate] |
